Reference: patent US6235516A, “Biocatalysts with amine acylase activity” (Novartis AG, priority 1996, dated 2001)
Values belong to the molecule of their own block, whether it stands above or below them.

Key:
AcR5b-acylase [1] = assay: Stability of the AcR5b-acylase during freezing, with and without cryoprotective agents; type: physicochemical, Arthrobacter aurescens AcR5b
[2] = system: whole cells of Rhodococcus globerulus K1/1; assay: Hydrolysis of racemic 2-acetylamino-1(4-chlorophenyl)-4-pentene with whole cells of Rhodococcus globerulus K1/1; type: cell-based; settings: 80 g racemic amide in 20 l, 21 h at 28° C.
Description: Strain K1/1 is grown according to example 3 in a 30 l fermenter filled with 20 l of basic medium containing 1 g/l of racemic N-acetyl-1-phenylethylamine. The cells are harvested by continuous centrifugation and resuspended in the reaction mixture, which is prepared by adding a solution of 80 g racemic 2-acetylamino-1(4-chlorophenyl)-4-pentene in 500 ml methanol to 20 l of potassium phosphate buffer, 69 mM, pH 7. After stirring for 21 h at 28° C. and 500 rpm the amine formed and the unreacted amide are separated and analyzed for their optical purity analogously to the procedure given in example 30.

K1/1 acylase = assay: Hydrolysis of racemic 2-acetylamino-1-phenyl-4-pentene with the purified K1/1 acylase; type: biochemical, Rhodococcus globerulus K1/1; settings: at 50.3% conversion
Description: To 50 ml of a 10 mM solution of racemic 2-acetylamino-1-phenyl-4-pentene in phosphate buffer (pH 7.0) 7 ml of the K1/1 acylase are added (0.456 U), which has been purified by HIC and concentrated by ultrafiltration (example 26.5 and 26.6). The deacylation is performed at 30° C. under continuous shaking at 200 rpm. The reaction is monitored by HPLC (see example 1), and after the conversion is about 50% the solution is acidified to pH 2 with 1 N HCl and extracted three times with one volume of dichloromethane to obtain the unconverted amides. The aqueous phase is neutralized with 1 N NaOH and extracted again three times with dichloromethane to recover the formed amines. Both organic phases are dried with MgSO4, filtered and the solvent is distilled off. The amides are used directly for optical purity determinations via HPLC under the following conditions: Chiralcel OJ column, hexane/isopropanol 9:1 as the eluent, flow rate 1 ml/min., detection at 208 nm. The obtained amines are converted to the acetamides by adding […] to each sample before being also analyzed for the optical purity by HPLC.

AcR5b-acylase [3] = assay: Dependence of the reaction velocity of the AcR5b-acylase on substrate concentration (Km, Vmax); type: biochemical, Arthrobacter aurescens AcR5b
Description: Activity assays are performed under the standard conditions given in example 11 with an incubation time of 30 min. using different initial concentrations of (R)-N-acetyl-1-phenylethylamine and racemic N-acetyl-(m-cyano-phenyl)ethylamine. The final AcR5b-acylase preparation obtained in example 4d, which has been diluted 20 fold with 69 mM potassium phosphate buffer, pH 7, serve as the enzyme source. The Michaelis constants (Km) and the maximum reaction velocities are calculated as described in example 9.

R. equi Ac6 = assay: Growth and induction of the acylase of Rhodococcus equi Ac6 (shake flask culture); type: cell-based; settings: for induction of the acylase expression of strain Ac6: 3 g/l in basic medium; for Enzyme yield with (R)-amide as the acylase substrate / Enzyme yield with (S)-amide as the acylase substrate: basic medium + 3 g/l of the amide as inducer; for Enzyme yield with (R)-amide as the acylase substrate / Enzyme yield with (S)-amide as the acylase substrate / OD660 at cell harvest: 91 h; for OD660 at cell harvest: basic medium + 3 g/l of the amide, basic medium alone 0.46; for effect on growth of Rhodococcus equi Ac6: in the growth medium
Description: R. equi Ac6 is grown in basic medium containing 3 g/l (S)-N-acetyl-1-phenylethylamine or 3 g/l (R)-N-acetyl-1-phenylethylamine or no N-acetyl-1-phenylethylamine for 91 h by the shake flask culture technique described in example 1. By applying the methods given in example 1 the crude extracts are prepared and subjected to measurement of the protein concentration and the acylase activity using (S)-N-acetyl-1-phenylethylamine and (R)-N-acetyl-1-phenylethylamine as the substrates.
R. equi Ac6 cells are inoculated into three 1 l Erlenmeyer flask containing each 100 ml of basic medium with 10 g/l yeast extract and 10 g/l meat extract as additional nutrients. The cells are grown (shake flask technique see example 1) until the OD660 reaches about 2. Then the culture is split into eight portions of 25 ml and (S)-N-acetyl-1-phenylethylamine is added to the shake flasks in final concentrations of 0-7 g/l in steps of 1 g/l. The cells are further incubated for 25 h. Then the protein concentrations and acylase activities of the crude extracts are measured as described in example 1.
In another experiment (S)-N-acetyl-1-phenylethylamine is added to the culture medium in final concentrations of 1 to 5 g/l in steps of 1 g/l directly after inoculation to one series of shake flasks (see example 1) and after 72 h of growth to another. Basic medium without peptone supplemented with 20 g/l meat extract and 20 g/l yeast extract is used. 96 h after inoculation the cells are harvested by centrifugation and the protein concentration and acylase activity in the crude extract are measured (see example 1).

CC(=O)N[C@@H](C)c1ccccc1 = assay: Dependence of the reaction velocity of the Ac6-acylase on substrate concentration (Km); type: biochemical, Rhodococcus equi Ac6; settings: other: purified Ac6-acylase, pH 7, 30° C., 10 min, nonlinear regression
Description: Activity assay under the standard conditions given in example 1 with an incubation time of 10 min. are performed using different initial concentrations of (S)-N-acetyl-1-phenylethylamine and the final Ac6-acylase preparation obtained in example 4c, which has been diluted 5 fold with 69 mM potassium phosphate buffer, pH 7, as the enzyme source. The Michaelis constant Km is calculated from the substrate concentrations and the corresponding reaction velocities by numerical nonlinear regression with the program "SigmaPlot for Windows" (Jandel Scientific GmbH, Schimmelbusch, Germany) to the formula: v=Vm×S/(S+Km). v: reaction velocity (U/ml=mM/min.), Vm : maximum reaction velocity (U/ml), S=(S)-N-acetyl-1-phenylethylamine concentration (mM).

[4] = AcR5b-acylase frozen 2.5 h at -20° C. with the cryoprotective agent of the label (label AcR5b-acylase = none)
[5] = AcR5b-acylase frozen 2.5 h at -80° C. with the cryoprotective agent of the label (label AcR5b-acylase = none)
[6] = AcR5b-acylase frozen 9 days at -20° C. with the cryoprotective agent of the label (label AcR5b-acylase = none)
[7] = AcR5b-acylase frozen 9 days at -80° C. with the cryoprotective agent of the label (label AcR5b-acylase = none)

Molecule: N.N.O=S(=O)(O)O [10% (NH4)2 SO4, (NH4)2 SO4]
- Relative activity (%) (AcR5b-acylase [1]; [4]): 100%
- Relative activity (%) (AcR5b-acylase [1]; [5]): 92%
- Relative activity (%) (AcR5b-acylase [1]; [6]): 81%
- Relative activity (%) (AcR5b-acylase [1]; [7]): 83%

- Relative activity (%) (AcR5b-acylase [1]; [4]): 100%
- Relative activity (%) (AcR5b-acylase [1]; [5]): 100%
- Relative activity (%) (AcR5b-acylase [1]; [6]): 100%
- Relative activity (%) (AcR5b-acylase [1]; [7]): 92%
Molecule: OC[C@H]1O[C@@](CO)(O[C@H]2O[C@H](CO)[C@@H](O)[C@H](O)[C@H]2O)[C@@H](O)[C@@H]1O [10% Saccharose, Saccharose]

- Relative activity (%) (AcR5b-acylase [1]; [4]): 77%
- Relative activity (%) (AcR5b-acylase [1]; [5]): 100%
- Relative activity (%) (AcR5b-acylase [1]; [6]): 98%
- Relative activity (%) (AcR5b-acylase [1]; [7]): 90%
Molecule: OCC(O)CO [50% Glycerol, Glycerol]

Molecule: C=CC[C@H](Cc1ccc(Cl)cc1)NC(C)=O [(R)-2-acetylamino-1(4-chlorophenyl)-4-pentene]
- ee of the unreacted amide [2]: 98.5 % ee

Molecule: C=CC[C@H](Cc1ccccc1)NC(C)=O [(R)-N-2-acetylamino-1-phenyl-4-pentene]
- ee of the unconverted amide (K1/1 acylase): 98.8 % ee

Molecule: CC(=O)N[C@H](C)c1ccccc1 [(R)-N-acetyl-1-phenylethylamine]
- Km (AcR5b-acylase [3]; 30 min incubation, pH 7): 5.7 mM
- relative maximum reaction velocity (AcR5b-acylase [3]; (R)-N-acetyl-1-phenylethylamine = 100): 100%
- induction of the acylase expression of strain Ac6 (R. equi Ac6): not effective as an inducer
- Enzyme yield with (R)-amide as the acylase substrate (R. equi Ac6): 0 U/lculture broth
- Enzyme yield with (S)-amide as the acylase substrate (R. equi Ac6): 0 U/lculture broth
- OD660 at cell harvest (R. equi Ac6): 0.19
- effect on growth of Rhodococcus equi Ac6 (R. equi Ac6): inhibits the growth of the bacterium

Molecule: C=CC[C@H](N)Cc1ccc(Cl)cc1 [(S)-2-amino-1(4-chlorophenyl)-4-pentene]
- ee of the formed amine [2]: > 99.9 % ee

Molecule: C=CC[C@H](N)Cc1ccccc1 [(S)-2-amino-1-phenyl-4-pentene]
- ee of the formed amine (K1/1 acylase): 87.4 % ee

Molecule: CC(=O)N[C@@H](C)c1ccccc1 [(S)-N-acetyl-1-phenylethylamine]
- maximal acylase production (R. equi Ac6; 2 g/l inducer added 72 h after inoculation, harvest 96 h): 20 U/lculture medium
- induction of the acylase expression of strain Ac6 (R. equi Ac6): has to be present in the growth medium to induce the acylase expression
- maximal acylase yield (R. equi Ac6; 3 g/l inducer added directly after inoculation, harvest 96 h): 60 U/lculture medium
- Enzyme yield with (R)-amide as the acylase substrate (R. equi Ac6): < 0.4 U/lculture broth
- Enzyme yield with (S)-amide as the acylase substrate (R. equi Ac6): 38.2 U/lculture broth
- OD660 at cell harvest (R. equi Ac6): 1.52
- effect on growth of Rhodococcus equi Ac6 (R. equi Ac6): inhibits the growth of the cells

Molecule: Ac6-acylase (Rhodococcus equi 103S)
- Km (CC(=O)N[C@@H](C)c1ccccc1): 0.6 mM
